These results are taken from ChEMBL document CHEMBL1136313, “Biological evaluation of sphingomyelin analogues as inhibitors of sphingomyelinase” (Bioorg Med Chem Lett, 2003).

Usually IC50 stands for the point on the concentration scale where inhibition reaches its midpoint. A high value points to lower potency.

The target of this test is T1, Sphingomyelin phosphodiesterase 2 (Rattus norvegicus, UniProt Q9ET64).
T1 sequence (Q9ET64 whole entry): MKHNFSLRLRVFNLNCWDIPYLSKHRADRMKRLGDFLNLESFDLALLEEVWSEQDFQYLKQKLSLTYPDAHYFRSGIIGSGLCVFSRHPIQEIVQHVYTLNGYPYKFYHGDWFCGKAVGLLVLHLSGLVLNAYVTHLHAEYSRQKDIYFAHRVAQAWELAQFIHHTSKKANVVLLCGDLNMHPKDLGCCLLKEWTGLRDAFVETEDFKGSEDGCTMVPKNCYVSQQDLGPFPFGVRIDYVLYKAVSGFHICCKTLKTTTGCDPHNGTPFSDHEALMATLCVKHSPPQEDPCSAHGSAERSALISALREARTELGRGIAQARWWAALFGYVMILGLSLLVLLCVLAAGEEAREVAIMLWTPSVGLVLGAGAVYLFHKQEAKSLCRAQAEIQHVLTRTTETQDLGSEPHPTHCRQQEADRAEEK
Briefly: Inhibitory activity against N-SMase (neutral magnesium- dependent-sphingomyelinase) using rat brain microsomes.

For the compound `CCCCCCCCCCCC[C@@H](O)[C@H](COC(=O)NCc1ccncc1)NC(=O)C(C)(C)C`, the 50% inhibitory concentration (IC50) was > 100 µM.
Next, `CCCCCCCCCCCCCCC/C=C/[C@@H](O)[C@H](COC(=O)NCc1ccncc1)NC(=O)C(C)(C)C`: 6.6 µM.
As for `CCCCCCCCCC/C=C/[C@@H](O)[C@H](COC(=O)NCc1ccncc1)NC(=O)C(C)(C)C`, the figure is 6.8 µM.
On to `CCCCCCCCCCCCC/C=C/[C@@H](O)[C@H](CNC(=S)NCc1ccncc1)NC(=O)C(C)(C)C`, for which inhibition was half-maximal at 45 µM (IC50).
On to `CCCCCCCCCCCCC/C=C/[C@@H](O)[C@H](COC(=O)N(O)Cc1ccncc1)NC(=O)C(C)(C)C`, for which the concentration for half-maximal inhibition (IC50) is 21 µM.
As for `CCCCCCCCCCCCCCC[C@@H](O)[C@H](COC(=O)NCc1ccncc1)NC(=O)C(C)(C)C`, the figure is > 100 µM; as for `CCCCCCCCCCCCC/C=C/[C@@H](O)[C@H](COC(=O)NCc1ccncc1)NC(=O)C(C)(C)C`, 2.8 µM.
In the case of `CCCCCCCCCCCCC/C=C/[C@@H](O)[C@H](CNC(=O)NCc1ccncc1)NC(=O)C(C)(C)C`, half-maximal inhibition (IC50) required 2.9 µM.
In turn, `CCCCCCCCCCCCC/C=C/[C@@H](O)[C@H](CNC(=O)OCc1ccncc1)NC(=O)C(C)(C)C` came in with an IC50 of 58 µM.
